The target of experiment [1] is CRBN-DDB1 (Homo sapiens, UniProt Q96SW2). Briefly: CRBN binding assay, biochemical (HTRF). The note with it: recombinant CRBN-DDB1, 1 h, read-out: Biochemical CRBN Binary Binding IC50 (nM ± SD). The protocol: Next, 400 nL of compound solution (initial concentration 10 µM, followed by a three‐fold gradient dilution) was dispensed into the wells using the positive‐pressure‐based I‐DOT dispenser. After 1 h of incubation at room temperature, the HTRF signal was measured using an Envision plate reader (Revvity). Finally, the data were analyzed using non‐linear regression curves in GraphPad Prism 9.5 software.
Chain of CRBN-DDB1 (Q96SW2 whole entry): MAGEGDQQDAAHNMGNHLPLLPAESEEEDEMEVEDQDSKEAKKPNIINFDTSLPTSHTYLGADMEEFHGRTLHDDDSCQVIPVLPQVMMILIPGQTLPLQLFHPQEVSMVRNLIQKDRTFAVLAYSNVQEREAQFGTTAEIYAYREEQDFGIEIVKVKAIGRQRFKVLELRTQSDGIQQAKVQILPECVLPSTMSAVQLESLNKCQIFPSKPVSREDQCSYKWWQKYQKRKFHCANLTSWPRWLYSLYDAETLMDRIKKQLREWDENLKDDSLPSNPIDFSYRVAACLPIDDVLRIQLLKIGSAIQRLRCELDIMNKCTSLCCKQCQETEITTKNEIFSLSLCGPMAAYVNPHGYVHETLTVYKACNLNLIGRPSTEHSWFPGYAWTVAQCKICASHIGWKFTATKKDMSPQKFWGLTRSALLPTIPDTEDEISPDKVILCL

For experiment [2], the target named is T1, CRBN (Homo sapiens, UniProt Q96SW2).
T1 construct: expressed in transfected cells; host or cells: HEK293T
T1 sequence (Q96SW2 whole entry): as above
Description: Intracellular CRBN binding in NanoLuc-CRBN-overexpressing HEK293T cells. The class given is cell-based. The note with it: read-out: Cellular CRBN Binding IC50 (nM ± SD). The protocol: NanoLuc‐CRBN‐overexpressing HEK293T were seeded in 96‐well plates at a density of 2000 per well. The following day, compounds was added to the plate starting from 10 µM for a 3‐fold gradient dilution and incubated for 2 h. […] Finally, the signal was measured using an Envision plate reader (Revvity) and the data were analyzed using the GraphPad Prism 9.5 software.

Experiment [3] has as its target T2, TEAD1 (Homo sapiens, UniProt P28347+Q96SW2).
T2 construct: endogenous in cells; host or cells: NCI-H1299 (TEAD1-mNeonGreen knock-in)
Briefly: Immunoblot of TEAD1 degradation in TEAD1-mNeonGreen fusion NCI-H1299 cells. The class given is cell-based. The note with it: 10 nM, 6 h, TEAD1-mNeonGreen NCI-H1299 cells. The protocol: (§1) Immunoblotting was carried out as previously described.^[ [29] ^] Cells were seeded in 6‐well plates (Yeasen, #84011ES50) at a density of 1 million cells per well. The following day, cells were treated with compounds at the required concentrations, with the DMSO concentration kept below 0.4‰ to prevent toxic effects on the cells. The collected cell pellets were washed three times with PBS (Meilunbio, #MA0015) and resuspended in 120 µL of RIPA lysis buffer (Meilunbio, #MA0151) containing 1% protease inhibitor (Meilunbio, #MB2678‐2). The cells were then sonicated on ice and centrifuged at 12 000 rpm for 15 min at 4 °C to remove cellular debris. Protein concentrations were determined using the BCA Protein Quantification Kit (Meilunbio, #MA0082‐1). The protein samples were normalized, boiled at 99 °C for 10 min, and then subjected to electrophoresis on a 10% SDS‐PAGE gel. The separated protein bands were transferred to nitrocellulose membranes, blocked with TBST containing 5% BSA, and incubated with the indicated primary antibodies. Finally, the blots were imaged using an Amersham Typhoon NIR imager.
(In general: A western blot detects proteins with antibodies after separation by electrophoresis.)

The target of experiment [4] is TEAD1 (Homo sapiens, UniProt P28347). Description: Immunoblot in wild-type / CRBN-knockout HEK293T cells and rescue experiment. The class given is cell-based. Also on record: endogenous in cells; host or cells: HEK293T wild-type and CRBN-knockout. The note with it: HEK293T cells, 1 h pretreatment. The protocol:
as §1

For experiment [5], the system named is 867 cancer cell lines. Description: PRISM assay (barcoded cell line screening, 5 days).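 Note: top test concentration 10 mM in eight-point dilution series.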 The class given is cell-based. The protocol:
The principle of the PRISM assay has been described elsewhere and was conducted as previously outlined by the PRISM team at the Broad Institute.^[ [14], [31] ^] In PRISM (MTS027) experiments, KG‐FP‐003 was tested across 867 different cancer cell lines. Cells were treated with eight concentration gradients, ranging from 4.6 nM to […], in triplicate dilutions over a period of five days. Each plate was treated with 20 µM bortezomib as a positive control and DMSO as a negative control. Three replicate experiments were performed for each compound. The resulting data were analyzed using GraphPad PRISM 9.5.

The test system of experiment [6] is A172 cells. Description: Cell viability assay (CTG, 72 h) A172. The note with it: 3-day compound treatment. It is filed as cell-based. The protocol: (§2) Cells were seeded at a density of 1000 cells per well in 96‐well flat‐bottomed cell culture plates and cultured overnight at 37 °C with 5% CO2 to allow for cell attachment. The following day, different concentrations of compounds were added using an I‐DOT dispenser. After 72 h, 25 µL of CellTiter‐Meiluncell Luminescent Cell Viability Reagent (Meilunbio, #PWL111‐2) was added and incubated for 15 min at room temperature. Luminescence signals were then measured using an Envision plate reader (Revvity). Data were analyzed using GraphPad Prism 9.5 software.^[ [30] ^]

The subject of experiment [7] is ES2 cells. Briefly: Cell viability assay (CTG, 72 h) ES2. The note with it: 3-day compound treatment. The class given is cell-based. The protocol: as §2
In experiment [8] the test system is HOS cells. Description: Cell viability assay (CTG, 72 h) HOS. It is filed as cell-based. The conditions noted are these: 3-day compound treatment. The protocol:
as §2

Experiment [9] deals with KLE cells. Briefly: Cell viability assay (CTG, 72 h) KLE. The class given is cell-based. The conditions noted are these: 3-day compound treatment. The protocol: as §2

The results in this text go back to publication PMC12752627, “Discovery of a Potent and Selective TEAD Degrader with Durable Degradation Activity” (Advanced Science, 2025).

Some results are limits rather than exact numbers.

Chain of TEAD1 (Homo sapiens, UniProt P28347) (P28347 whole entry): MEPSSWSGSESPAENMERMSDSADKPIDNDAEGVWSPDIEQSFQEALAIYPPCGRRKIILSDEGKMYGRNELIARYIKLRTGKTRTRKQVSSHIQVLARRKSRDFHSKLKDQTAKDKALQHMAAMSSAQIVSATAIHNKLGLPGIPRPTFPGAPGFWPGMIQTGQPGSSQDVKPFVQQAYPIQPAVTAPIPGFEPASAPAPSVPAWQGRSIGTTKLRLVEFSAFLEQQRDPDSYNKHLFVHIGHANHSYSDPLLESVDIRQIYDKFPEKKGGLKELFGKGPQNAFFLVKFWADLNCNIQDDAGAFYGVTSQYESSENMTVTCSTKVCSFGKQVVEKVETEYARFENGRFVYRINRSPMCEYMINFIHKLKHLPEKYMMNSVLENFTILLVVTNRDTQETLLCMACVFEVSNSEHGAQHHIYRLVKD
T2 sequence (P28347 whole entry): as above
T2 sequence (Q96SW2 whole entry): as the sequence (Q96SW2 whole entry) above
T2 sequence (Q16531 2-1140 partner limits assumed): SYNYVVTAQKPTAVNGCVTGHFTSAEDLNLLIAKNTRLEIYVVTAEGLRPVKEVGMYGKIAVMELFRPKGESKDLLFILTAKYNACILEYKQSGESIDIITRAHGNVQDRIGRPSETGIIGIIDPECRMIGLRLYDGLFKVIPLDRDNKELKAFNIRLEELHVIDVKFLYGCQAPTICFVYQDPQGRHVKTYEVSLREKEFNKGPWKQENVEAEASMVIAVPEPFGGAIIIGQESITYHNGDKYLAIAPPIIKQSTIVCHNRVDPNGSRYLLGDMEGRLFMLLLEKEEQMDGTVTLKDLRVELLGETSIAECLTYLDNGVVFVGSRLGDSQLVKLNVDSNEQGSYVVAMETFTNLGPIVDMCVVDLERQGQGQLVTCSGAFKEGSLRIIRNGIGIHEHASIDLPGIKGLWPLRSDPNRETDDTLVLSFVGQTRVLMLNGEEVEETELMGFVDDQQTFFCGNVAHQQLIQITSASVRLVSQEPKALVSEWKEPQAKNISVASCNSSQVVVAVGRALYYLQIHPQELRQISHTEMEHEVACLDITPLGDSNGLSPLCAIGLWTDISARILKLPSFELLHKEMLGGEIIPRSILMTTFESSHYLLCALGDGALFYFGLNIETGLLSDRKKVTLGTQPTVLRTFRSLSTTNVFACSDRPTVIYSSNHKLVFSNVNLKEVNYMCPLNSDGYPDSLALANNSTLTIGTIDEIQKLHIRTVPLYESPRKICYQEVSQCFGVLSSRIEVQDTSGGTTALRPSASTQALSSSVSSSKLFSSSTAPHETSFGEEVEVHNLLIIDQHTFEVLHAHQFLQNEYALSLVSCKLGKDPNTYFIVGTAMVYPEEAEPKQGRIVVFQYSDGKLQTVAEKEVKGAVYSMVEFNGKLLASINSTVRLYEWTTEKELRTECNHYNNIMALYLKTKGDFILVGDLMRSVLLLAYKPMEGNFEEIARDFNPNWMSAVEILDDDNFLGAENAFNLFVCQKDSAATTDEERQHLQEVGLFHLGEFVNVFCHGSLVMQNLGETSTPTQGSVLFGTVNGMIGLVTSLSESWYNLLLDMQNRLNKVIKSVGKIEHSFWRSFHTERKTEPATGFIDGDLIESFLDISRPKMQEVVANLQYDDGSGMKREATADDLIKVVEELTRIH

As to `CNC(=O)c1cc2c(c(F)c1-c1c(Cl)c(F)cc3c1C[C@@](CNC(=O)CCCCC(=O)Nc1ccc4c(c1)C(=O)N(C1CCC(=O)NC1=O)C4=O)(c1ccccc1)O3)[C@@H](O)[C@@H](C)C2` (stereo partly drawn) [KG-FP-008], the IC50 – broadly, the concentration needed to halve the response being measured – was determined as 126 ± 47 nM in experiment [1] and 426 ± 176 nM in experiment [2].

As to `CNC(=O)c1cc2c(c(F)c1-c1c(Cl)c(F)cc3c1C[C@@](CN[C@H]1CC[C@H](C(=O)N4CCC(CC5CCN(C(=O)COc6ccc7c(c6)C(=O)N(C6CCC(=O)NC6=O)C7=O)CC5)CC4)CC1)(c1ccccc1)O3)[C@@H](O)[C@@H](C)C2` (stereo partly drawn) [KG-FP-009], in experiment [3], the “Target degradation by immunoblot” value was “significant target degradation”. Further, the IC50 in experiment [1] came to 152 ± 12 nM; in experiment [2] it was 1380 ± 794 nM.

For `CNC(=O)c1cc2c(c(F)c1-c1c(Cl)c(F)cc3c1C[C@@](CN[C@H]1CC[C@H](C(=O)NCCCCC(=O)Nc4ccc(C)c(N5CCC(=O)NC5=O)c4)CC1)(c1ccccc1)O3)[C@@H](O)[C@@H](C)C2` [KG-FP-010], the values for the IC50 in experiment [1] and in [2] were 474 ± 14 nM and 1700 ± 384 nM, respectively.

For the compound `Nc1cccc2c1CN(C1CCC(=O)NC1=O)C2=O` (stereo not drawn) [Lenalidomide, lenalidomide], the “Rescue: effect of pretreatment on KG-FP-003-mediated TEAD1 degradation” value (shortened to “Rescue: effect of pretreatment”) in experiment [4] is recorded as “effectively blocked”.

As to `NS(=O)(=O)OC[C@@H]1C[C@@H](n2ccc3c(N[C@H]4CCc5ccccc54)ncnc32)C[C@@H]1O` [MLN4924], the “Rescue: effect of pretreatment” value in experiment [4] is listed as “effectively blocked”.

Take `C=C(F)C(=O)N1C[C@@H](Nc2ncccn2)[C@H](OCc2ccc(C(F)(F)F)cc2)C1` [MYF-03-176, reference compound]: the “PRISM AUC” value in experiment [5] (Cell line: A172, 5 days) turned out to be 0.59; in experiment [5] (Cell line: ES2, 5 days), 1.00; in experiment [5] (Cell line: HOS, 5 days) it was 0.90; in [5] (Cell line: KLE, 5 days), 1.00. Moreover, the IC50 in experiment [6] was more than 3000 nM; in experiment [7], more than 2000 nM; in [8], 922 ± 404 nM; in [9], 1410 ± 479 nM.

With `CC(C)C[C@H](NC(=O)[C@H](Cc1ccccc1)NC(=O)c1cnccn1)B(O)O` [bortezomib], the “Rescue: effect of pretreatment” value in experiment [4] is “effectively blocked”.
